{"source": "patent US12343335B2", "about": "“Pharmaceutical composition for treating multiple sclerosis on basis of AMPK inhibitory function and zinc homeostasis control function” (ZINCURE CORP., priority 2019, dated 2025)", "key": {"[1]": {"test_system": "spinal cord of MOG35-55 immunized EAE mice", "experiment": "Immunofluorescence staining of spinal cord of EAE mice", "type": "in vivo, C57BL/6 female mice", "description": "The present inventors induced experimental autoimmune encephalomyelitis (EAE), an animal model of multiple sclerosis, by subcutaneously injecting Myelin oligodendrocyte glycoprotein 35-55 (MOG35-55) peptide antigen into C57BL/6 female mice (FIG. 1A). For this, MOG35-55 (Ana spec, USA) and Complete freund's adjuvant (CFA) were first prepared, and MOG35-55 (2 mg/ml) was dissolved in Phosphate buffered saline (lx PBS, Sigma), and then the 25 ml of CFA was prepared by dispending 25 ml of incomplete freund's adjuvant (IFA. Sigma) in a 50 ml conical tube. Then, in a fume hood, Mycobacterium tuberculosis H37Ra (100 mg; Difco, USA) was added to the IFA in order to prepare CFA and store it in the refrigerator after vortexing before use. Thereafter, MOG35-55 and CFA containing Mycobacterium tuberculosis H37Ra was mixed in the same amount and injected into both flanks of the mice. And then Pertussis toxin (4 μg/ml, List Biological Laboratories, USA) was injected intraperitoneally on the day of immunization and on the second day after immunization. After the immunization, the mice's body weight and clinical symptoms were measured every day, and the degree of EAE progression was evaluated based on specific clinical symptoms. More details on this are provided below.\nOn the 21st day after EAE induction, the present inventors anesthetized mice with urethane and then perfused 4% paraformaldehyde into the heart to fix the spinal cord. After extracting the spinal cord, in order to examine demyelination of activity of microglia/macrophages the cell/macrophage activity of the tissue, immunofluorescence staining was performed with anti-myelin basic protein (MBP) and anti-F4/80 (Microglia/Macrophage) antibodies. In addition, anti-bodies against ionized calcium binding adapter molecule-1 (Iba-1) and anti-CD68 (Cluster of Differentiation 68) used as markers of microglia/macrophages to analyze the phenotype of strongly activated microglia/macrophages in the white matter part of the damaged spinal cord. Double immunofluorescence staining was performed using antibodies against CD8 and matrix metalloproteinase 9 (MMP-9) in order to investigate how AMP-activated protein kinase (AMPK) activity affects the survival of these cells. In addition, double immunofluorescence staining was performed using anti-CD8 and anti-phospho-AMPK antibodies to determine how AMP-activated protein kinase (AMPK) activity affects the survival of these cells in T cells infiltrating the spinal cord. In order to compare and analyze the activity of (MMP-9), immunofluorescence staining was performed using anti-MMP-9 antibodies. To examine the activity of astrocytes in the spinal cord, immunofluorescence staining was performed using anti-glial fibrillary acidic protein (GFAP) antibodies. To compare and analyze the expression of cytokines such as tumor necrosis factor (TNF) alpha and interferon (IFN) gamma, double immunofluorescence staining was performed using anti-TNF-alpha and anti-IFN gamma antibodies. In the same manner as the immunohistochemical method described above, the cryosections were reacted with 3% hydrogen peroxide at room temperature for 15 minutes to remove endogenous peroxidase, and then the primary antibodies, rat anti-MBP (1:200, Abcam, UK), anti-F4/80 (1:100, eBioscience, USA), goat anti-Iba1 (1:500, Abcam), anti-CD68 (1:100, Bio-Rad Laboratories, USA), anti-CD8 (1:50, BD Bioscience), anti-p-AMPK (1:100, Abcam), anti-MMP-9 (1:100, Abcam), anti-GFAP (1:500, Abcam), anti-IFN gamma (1:100, Invitrogen, USA), anti-TNF alpha (1:250, Abcam) antibodies were reacted for 15 hours at 4° C. Then, Alexa Fluor 488-, 594-, 647-conjugated secondary antibodies (1:250, Invitrogen, USA) suitable for the host of each primary antibodies were reacted at room temperature for 2 hours. […]"}, "cultivated neurons": {"test_system": "cultivated neurons", "experiment": "Cytosolic zinc level in cultured neurons with FluoZin-3", "type": "cell-based, mouse", "settings": "neurons exposed to zinc (300 μM) for 15 minutes, measured for 60 min", "description": "The mouse cortical neurons used in the present invention were extracted from the brain of a mouse embryo, and cultured in Dulbecco's modified Eagle's medium (DMEM, Gibco, Grand Island, NY, US) supplemented with 5% fetal bovine serum (FBS) and 5% horse serum (HS) under the condition of 95% humidity, 5% CO2 and 37° C. For activation and differentiation of the cells, the cells were grown to a density of 2×10^4 cells in a 24-well tissue culture plate and cultured in MEM medium without FBS and HS before treatment with zinc and compounds.\nThe present inventors treated FluoZin-3, a substance illuminate fluorescence if it bind to free zinc to cultivated neurons in order to verify the possibility of zinc chelation according to the treatment of 1H10 {(Z)-5-((1H-indol-3-yl)methylene)-2-((3-hydroxyphenyl)amino)thiazol-4(5H)-one} according to an embodiment of the present invention, and then measured cytosolic zinc level in the neurons for 60 min after exposing zinc (300 μM) for 15 minutes and removing the zinc. In addition, 20 μM zinc (ZnCl2) and NewPort Green DCF fluorophore, which emits fluorescence when it bind to zinc, were added to the test tube, and 1H10 of the present invention was treated at various concentrations. Clioquinol, a zinc chelator, and calcium ionophore Phosphorus ionomycin was used as controls. […]"}, "[2]": {"settings": "spinal cord white matter, day 21 after EAE induction, compared to vehicle only"}, "[3]": {"settings": "spinal cord, day 21 after EAE induction, vs vehicle"}}, "data": [{"molecule": "O=C1N=C(Nc2cccc(O)c2)S/C1=C\\c1c[nH]c2ccccc12", "note": "[1H10, (Z)-5-((1H-indol-3-yl)methylene)-2-((3-hydroxyphenyl)amino)thiazol-4(5H)-one]", "values": [{"measurement": "phosphorylation of AMPK in CD8+ T cells infiltrated into the spinal cord", "setting": "[1]; after EAE induction, vs vehicle", "result": "significantly decreased"}, {"measurement": "activity of MMP-9", "setting": "[1]; spinal cord white matter, EAE, compared to vehicle only", "result": "inhibited"}, {"measurement": "activity of astrocytes (GFAP)", "setting": "[1]; spinal cord white matter, day 21, vs vehicle", "result": "significantly inhibited"}, {"measurement": "expression of IFN gamma", "setting": "[1]; [2]", "result": "increased"}, {"measurement": "expression of TNF alpha", "setting": "[1]; [2]", "result": "decreased"}, {"measurement": "activated M1-type microglia/macrophages (Iba-1 and CD68 co-expression)", "setting": "[1]; spinal cord, after EAE induction, vs vehicle", "result": "significantly reduced"}, {"measurement": "EAE-induced demyelination (MBP staining)", "setting": "[1]; [3]", "result": "significantly decreased"}, {"measurement": "activity of microglia/macrophages (F4/80)", "setting": "[1]; [3]", "result": "significantly decreased"}, {"measurement": "increase of intracellular zinc level (FluoZin-3)", "setting": "cultivated neurons", "result": "significantly reduced"}]}]}
